Results published in patent publication US20240067693A1, “POLYPEPTIDES AND USES THEREOF” (MEDIMMUNE LIMITED, priority 2020, published 2024).
Numbered stars: 1 amine (or outer) side, 2 acyl side, 3 side chain; on linkers, the order of the positions; unused ones are H or OH. Bridge positions count the residues as written; N and C are the ends. Square brackets hold non-standard residues; d marks the D form. Side chains are listed from the residue outwards. Peptide text beside a SMILES is read from it. * marks the point of attachment. C18 diacid = O=C(O)CCCCCCCCCCCCCCCCC(=O)*; γGlu = O=C(O)[C@H](CCC(=O)[*:2])N[*:1]; Aib = CC(C)(N)C(=O)O

Tests used:
[1] = biological target: T1, human amylin receptor (calcitonin receptor co-expressed with receptor activity modifying protein, RAMP3) (hAMYR3) (Homo sapiens, UniProt O60896+P30988); test: cAMP production in 1321N1 cells with stable recombinant expression of human amylin receptor (hAMYR3); format: cell-based; conditions: for Ratio (selectivity hAMYR vs hCTR, ratio of EC50 values at the two receptors): EC50 hCTR / EC50 hAMYR3; for EC50: cAMP, 1321N1 cells, assay buffer with 0.1% BSA, read-out: EC50 (pM) hAMYR3
T1 construct: expressed in transfected cells
T1 sequence (P30988 25-474): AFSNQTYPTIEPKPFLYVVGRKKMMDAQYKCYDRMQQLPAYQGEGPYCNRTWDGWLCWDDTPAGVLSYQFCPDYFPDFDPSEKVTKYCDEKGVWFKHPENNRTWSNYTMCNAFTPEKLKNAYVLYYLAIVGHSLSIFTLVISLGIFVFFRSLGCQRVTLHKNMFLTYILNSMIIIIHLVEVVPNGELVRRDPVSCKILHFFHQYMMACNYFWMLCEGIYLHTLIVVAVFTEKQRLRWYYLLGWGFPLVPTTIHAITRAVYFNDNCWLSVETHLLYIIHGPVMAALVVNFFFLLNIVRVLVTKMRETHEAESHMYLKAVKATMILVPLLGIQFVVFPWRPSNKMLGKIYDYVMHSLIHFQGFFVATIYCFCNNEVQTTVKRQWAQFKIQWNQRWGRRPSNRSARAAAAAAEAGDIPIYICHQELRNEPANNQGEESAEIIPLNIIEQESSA
T1 sequence (O60896 24-148 partner): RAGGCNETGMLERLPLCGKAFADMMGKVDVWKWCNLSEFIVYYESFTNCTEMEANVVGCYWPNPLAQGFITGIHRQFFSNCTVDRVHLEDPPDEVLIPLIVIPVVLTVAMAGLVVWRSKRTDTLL
Summary of the method: (§1)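 EC50 values come from 4-parameter logistic fits of HTRF cAMP signal, normalised to maximal calcitonin or amylin effect. Peptides were tested in duplicate for 30 min at RT in IBMX-containing (0.5 mM) BSA/HEPES buffer pH 7.4 on stable 1321N1 (human CTR, AMYR3) or HEK (rat CTR, AMYR3) lines.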

[2] = biological target: T2, human calcitonin receptor (hCTR) (Homo sapiens, UniProt P30988); test: cAMP production in 1321N1 cells with stable recombinant expression of human calcitonin receptor (hCTR); format: cell-based; conditions: cAMP, 1321N1 cells, assay buffer with 0.1% BSA; read-out: EC50 (pM) hCTR
T2 construct: expressed in transfected cells
T2 sequence (P30988 25-474): T1 sequence (P30988 25-474)
Summary of the method: as §1

| Structure (SMILES) | Ratio (selectivity hAMYR vs hCTR, ratio of EC50 values at the two receptors) [1] | EC50 [1] [pM] | EC50 [2] [pM] |
| --- | --- | --- | --- |
| CC[C@H](C)[C@H](NC(=O)[C@@H]1CCCN1C(=O)CNC(=O)[C@H](Cc1ccccc1)NC(=O)[C@H](CC(N)=O)NC(=O)[C@H](CC(N)=O)NC(=O)[C@H](CO)NC(=O)[C@H](CO)NC(=O)[C@H](Cc1c[nH]cn1)NC(=O)C(C)(C)NC(=O)[C@H](CC(C)C)NC(=O)[C@H](Cc1ccccc1)NC(=O)[C@H](CC(N)=O)NC(=O)[C@H](C)NC(=O)[C@H](CC(C)C)NC(=O)[C@H](CCCNC(=N)N)NC(=O)[C@H](CCC(N)=O)NC(=O)[C@@H](NC(=O)[C@H](C)NC(=O)[C@@H]1CSSC[C@H](NC(=O)[C@H](CCCCN)NC(=O)[C@@H](N)CCCCNC(=O)CC[C@H](NC(=O)CCCCCCCCCCCCCCCCC(=O)O)C(=O)O)C(=O)N[C@@H](CC(N)=O)C(=O)N[C@@H]([C@@H](C)O)C(=O)N[C@@H](C)C(=O)N[C@@H]([C@@H](C)O)C(=O)N1)[C@@H](C)O)C(=O)N[C@@H](CC(C)C)C(=O)N1CCC[C@H]1C(=O)N1CCC[C@H]1C(=O)N[C@H](C(=O)N[C@@H](CC(N)=O)C(=O)N[C@H](C(=O)NCC(=O)N[C@@H](CO)C(=O)N[C@@H](CCC(=O)O)C(=O)N[C@H](C(=O)N[C@@H](Cc1ccc(O)cc1)C(N)=O)[C@@H](C)O)C(C)C)[C@@H](C)O [Peptide 142] (H-K([γGlu-C18 diacid])KCNTATCATQRLANFL[Aib]HSSNNFGPILPPTNVGSETY-NH2; disulfide 3-8; N-terminus assumed) | 3.1 | 730 | 2270 |
| CC[C@H](C)[C@H](NC(=O)[C@@H]1CCCN1C(=O)CNC(=O)[C@H](Cc1ccccc1)NC(=O)[C@H](CC(N)=O)NC(=O)[C@H](CC(N)=O)NC(=O)[C@H](CO)NC(=O)[C@H](CO)NC(=O)[C@H](Cc1c[nH]cn1)NC(=O)C(C)(C)NC(=O)[C@H](CC(C)C)NC(=O)[C@H](Cc1ccccc1)NC(=O)[C@H](CC(N)=O)NC(=O)[C@H](C)NC(=O)[C@H](CC(C)C)NC(=O)[C@H](CCCNC(=N)N)NC(=O)[C@H](CCC(N)=O)NC(=O)[C@@H](NC(=O)[C@H](C)NC(=O)[C@@H]1CSSC[C@H](NC(=O)[C@H](CCCCN)NC(=O)CNC(=O)CNC(=O)[C@@H](N)CCCCNC(=O)CC[C@H](NC(=O)CCCCCCCCCCCCCCCCC(=O)O)C(=O)O)C(=O)N[C@@H](CC(N)=O)C(=O)N[C@@H]([C@@H](C)O)C(=O)N[C@@H](C)C(=O)N[C@@H]([C@@H](C)O)C(=O)N1)[C@@H](C)O)C(=O)N[C@@H](CC(C)C)C(=O)N1CCC[C@H]1C(=O)N1CCC[C@H]1C(=O)N[C@H](C(=O)N[C@@H](CC(N)=O)C(=O)N[C@H](C(=O)NCC(=O)N[C@@H](CO)C(=O)N[C@@H](CC(N)=O)C(=O)N[C@H](C(=O)N[C@@H](Cc1ccc(O)cc1)C(N)=O)[C@@H](C)O)C(C)C)[C@@H](C)O [Peptide 143] (H-K([γGlu-C18 diacid])GGKCNTATCATQRLANFL[Aib]HSSNNFGPILPPTNVGSNTY-NH2; disulfide 5-10; N-terminus assumed) | 11.7 | 592 | 6940 |
| CC[C@H](C)[C@H](NC(=O)[C@@H]1CCCN1C(=O)CNC(=O)[C@H](Cc1ccccc1)NC(=O)[C@H](CC(N)=O)NC(=O)[C@H](CC(N)=O)NC(=O)[C@H](CO)NC(=O)[C@H](CO)NC(=O)[C@H](Cc1c[nH]cn1)NC(=O)C(C)(C)NC(=O)[C@H](CC(C)C)NC(=O)[C@H](Cc1ccccc1)NC(=O)[C@H](CC(N)=O)NC(=O)[C@H](C)NC(=O)[C@H](CC(C)C)NC(=O)[C@H](CCCNC(=N)N)NC(=O)[C@H](CCC(N)=O)NC(=O)[C@@H](NC(=O)[C@H](C)NC(=O)[C@@H]1CSSC[C@H](NC(=O)[C@H](CCCCN)NC(=O)[C@@H](N)CCCCNC(=O)CC[C@H](NC(=O)CCCCCCCCCCCCCCCCC(=O)O)C(=O)O)C(=O)N[C@@H](CC(N)=O)C(=O)N[C@@H]([C@@H](C)O)C(=O)N[C@@H](C)C(=O)N[C@@H]([C@@H](C)O)C(=O)N1)[C@@H](C)O)C(=O)N[C@@H](CC(C)C)C(=O)N1CCC[C@H]1C(=O)N1CCC[C@H]1C(=O)N[C@H](C(=O)N[C@@H](CC(N)=O)C(=O)N[C@H](C(=O)NCC(=O)N[C@@H](Cc1c[nH]cn1)C(=O)N[C@@H](CC(N)=O)C(=O)N[C@H](C(=O)N[C@@H](Cc1ccc(O)cc1)C(N)=O)[C@@H](C)O)C(C)C)[C@@H](C)O [Peptide 145] (H-K([γGlu-C18 diacid])KCNTATCATQRLANFL[Aib]HSSNNFGPILPPTNVGHNTY-NH2; disulfide 3-8; N-terminus assumed) | 4.5 | 417 | 1880 |
| CC[C@H](C)[C@H](NC(=O)[C@@H]1CCCN1C(=O)CNC(=O)[C@H](Cc1ccccc1)NC(=O)[C@H](CC(N)=O)NC(=O)[C@H](CC(N)=O)NC(=O)[C@H](CO)NC(=O)[C@H](CO)NC(=O)[C@H](Cc1c[nH]cn1)NC(=O)C(C)(C)NC(=O)[C@H](CC(C)C)NC(=O)[C@H](Cc1ccccc1)NC(=O)[C@H](CC(N)=O)NC(=O)[C@H](C)NC(=O)[C@H](CC(C)C)NC(=O)[C@H](CCCNC(=N)N)NC(=O)[C@H](CCC(N)=O)NC(=O)[C@@H](NC(=O)[C@H](C)NC(=O)[C@@H]1CSSC[C@H](NC(=O)[C@H](CCCCN)NC(=O)[C@@H](N)CCCCNC(=O)CC[C@H](NC(=O)CCCCCCCCCCCCCCCCC(=O)O)C(=O)O)C(=O)N[C@@H](CC(N)=O)C(=O)N[C@@H]([C@@H](C)O)C(=O)N[C@@H](C)C(=O)N[C@@H]([C@@H](C)O)C(=O)N1)[C@@H](C)O)C(=O)N[C@@H](CC(C)C)C(=O)N1CCC[C@H]1C(=O)N1CCC[C@H]1C(=O)N[C@H](C(=O)N[C@@H](Cc1c[nH]cn1)C(=O)N[C@H](C(=O)NCC(=O)N[C@@H](CO)C(=O)N[C@@H](CCC(=O)O)C(=O)N[C@H](C(=O)N[C@@H](Cc1ccc(O)cc1)C(N)=O)[C@@H](C)O)C(C)C)[C@@H](C)O [Peptide 146] (H-K([γGlu-C18 diacid])KCNTATCATQRLANFL[Aib]HSSNNFGPILPPTHVGSETY-NH2; disulfide 3-8; N-terminus assumed) | 1.9 | 2530 | 4870 |

Further compounds by falling EC50 [1], results first:

| Ratio (selectivity hAMYR vs hCTR, ratio of EC50 values at the two receptors) [1] | EC50 [1] [pM] | EC50 [2] [pM] | Structure (SMILES) |
| --- | --- | --- | --- |
| 9.5 | 414 | 3950 | CC[C@H](C)[C@H](NC(=O)[C@@H]1CCCN1C(=O)CNC(=O)[C@H](Cc1ccccc1)NC(=O)[C@H](CC(N)=O)NC(=O)[C@H](CC(N)=O)NC(=O)[C@H](CO)NC(=O)[C@H](CO)NC(=O)[C@H](Cc1c[nH]cn1)NC(=O)C(C)(C)NC(=O)[C@H](CC(C)C)NC(=O)[C@H](Cc1ccccc1)NC(=O)[C@H](CC(N)=O)NC(=O)[C@H](C)NC(=O)[C@H](CC(C)C)NC(=O)[C@H](CCCNC(=N)N)NC(=O)[C@H](CCC(N)=O)NC(=O)[C@@H](NC(=O)[C@H](C)NC(=O)[C@@H]1CSSC[C@H](NC(=O)[C@H](CCCCN)NC(=O)[C@@H](N)CCCCNC(=O)CC[C@H](NC(=O)CCCCCCCCCCCCCCCCC(=O)O)C(=O)O)C(=O)N[C@@H](CC(N)=O)C(=O)N[C@@H]([C@@H](C)O)C(=O)N[C@@H](C)C(=O)N[C@@H]([C@@H](C)O)C(=O)N1)[C@@H](C)O)C(=O)N[C@@H](CC(C)C)C(=O)N1CCC[C@H]1C(=O)N1CCC[C@H]1C(=O)N[C@H](C(=O)N[C@@H](CC(N)=O)C(=O)N[C@H](C(=O)NCC(=O)N[C@@H](CO)C(=O)N[C@@H](CCCNC(=N)N)C(=O)N[C@H](C(=O)N[C@@H](Cc1ccc(O)cc1)C(N)=O)[C@@H](C)O)C(C)C)[C@@H](C)O [Peptide 141] (H-K([γGlu-C18 diacid])KCNTATCATQRLANFL[Aib]HSSNNFGPILPPTNVGSRTY-NH2; disulfide 3-8; N-terminus assumed) |
| 5.3 | 138 | 725 | CC[C@H](C)[C@H](NC(=O)[C@@H]1CCCN1C(=O)CNC(=O)[C@H](Cc1ccccc1)NC(=O)[C@H](CC(N)=O)NC(=O)[C@H](CC(N)=O)NC(=O)[C@H](CO)NC(=O)[C@H](CO)NC(=O)[C@H](Cc1c[nH]cn1)NC(=O)C(C)(C)NC(=O)[C@H](CC(C)C)NC(=O)[C@H](Cc1ccccc1)NC(=O)[C@H](Cc1c[nH]cn1)NC(=O)[C@H](C)NC(=O)[C@H](CC(C)C)NC(=O)[C@H](CCCNC(=N)N)NC(=O)[C@H](CCC(N)=O)NC(=O)[C@@H](NC(=O)[C@H](C)NC(=O)[C@@H]1CSSC[C@H](NC(=O)[C@@H](N)CCCCNC(=O)CC[C@H](NC(=O)CCCCCCCCCCCCCCCCC(=O)O)C(=O)O)C(=O)N[C@@H](CC(N)=O)C(=O)N[C@@H]([C@@H](C)O)C(=O)N[C@@H](C)C(=O)N[C@@H]([C@@H](C)O)C(=O)N1)[C@@H](C)O)C(=O)N[C@@H](CC(C)C)C(=O)N1CCC[C@H]1C(=O)N1CCC[C@H]1C(=O)N[C@H](C(=O)N[C@@H](CC(N)=O)C(=O)N[C@H](C(=O)NCC(=O)N[C@@H](CO)C(=O)N[C@@H](CC(N)=O)C(=O)N[C@H](C(=O)N[C@@H](Cc1ccc(O)cc1)C(N)=O)[C@@H](C)O)C(C)C)[C@@H](C)O [Peptide 144] (H-K([γGlu-C18 diacid])CNTATCATQRLAHFL[Aib]HSSNNFGPILPPTNVGSNTY-NH2; disulfide 2-7; N-terminus assumed) |
